Assay results: patent US11028075B2, “Therapeutic compounds and methods of use thereof” (GENENTECH, INC., priority 2018, dated 2021)
Where a name gives a salt, the structure may show the parent alone.

Key:
hNav1.7 [1] = biological target: T1, hNav1.7 (Homo sapiens (Human), UniProt Q15858); test: Tritiated compound binding to membranes from cells heterologously expressing hNav1.7 and the β1 subunit (Nav1.7 LBA); conditions: competitive binding vs [3H]compound, membranes with hNav1.7 and β1 subunit; read-out: Nav1.7 LBA EVO IC50
Procedure: Example 93A. Tritiated Compound Binding to Membranes Isolated from Cells that Heterologously Express hNav1.7 and the β1 Subunit
Preparation of membranes containing recombinantly expressed sodium channels: Frozen recombinant cell pellets are thawed on ice and diluted to 4 times the cell pellet weight with ice cold 50 mM Tris HCl, pH 7.4 buffer. The cell suspensions are homogenized on ice using a motorized glass dounce homogeniser. Homogenates are further diluted 8.4 times with ice cold 50 mM Tris HCl, pH 7.4 buffer and then centrifuged at 200×g at 4° C. for 15 minutes. The supernatants are collected and centrifuged at 10000×g at 4° C. for 50 min. The pellets are then re-suspended in 100 mM NaCl, 20 mM Tris HCl, pH 7.4 buffer containing 1% v/v protease inhibitors (Calbiochem) and re-homogenized on ice. The homogenized membranes are then processed through a syringe equipped with a 26 gauge needle. Protein concentrations arer determined by Bradford Assay and the membranes are stored at −80° C.
Saturation experiments. A competitive NaV1.7 inhibitor having a methyl group is tritiated. Three tritiums are incorporated in place of methyl hydrogens to generate [^3H]compound. Binding of this radioligand is performed in 5 mL borosilicate glass test tubes at room temperature. Binding is initiated by adding membranes to increasing concentrations of [^3H]compound in 100 mM NaCl, 20 mM Tris HCl, pH 7.4 buffer containing 0.01% w/v bovine serum albumin (BSA) for 18 h. Non-specific binding is determined in the presence of 1 μM unlabeled compound. After 18 h, the reactants are filtered through GF/C glass fiber filters presoaked in 0.5% w/v polyethylene imine. Filters are washed with 15 mL ice cold 100 mM NaCl, 20 mM Tris HCl, pH7.4 buffer containing 0.25% BSA to separate bound from free ligand. [^3H]compound bound to filters is quantified by liquid scintillation counting.
Binding reactions are performed in 96-well polypropylene plates at room temperature for 18 h. In 360 μL, membranes are incubated with […] [^3H]compound and increasing concentrations of Test Compound. Non-specific binding is defined in the presence of 1 μM unlabeled compound. Reactions are transferred and filtered through 96-well glass fiber/C filter plates presoaked with 0.5% polyethylene imine. The filtered reactions are washed 5 times with 200 μL ice cold buffer containing 0.25% BSA. Bound radioactivity is determined by liquid scintillation counting.
Data Analysis: For saturation experiments, non-specific binding is subtracted from total binding to provide specific binding and these values are recalculated in terms of pmol ligand bound per mg protein. Saturation curves are constructed and dissociation constants are calculated using the single site ligand binding model: Beq=(Bmax*X)/(X+Kd), where Beq is the amount of ligand bound at equilibrium, Bmax is the maximum receptor density, Kd is the dissociation constant for the ligand, and X is the free ligand concentration. For competition studies percent inhibition is determined and IC50 values are calculated using a 4 parameter logistic model (% inhibition=(A+((B−A)/(1+((x/C)^D)))) using XLfit, where A and B are the maximal and minimum inhibition respectively, C is the IC50 concentration and D is the (Hill) slope.
Example 93B. Tritiated Compound Binding to Membranes Isolated from Cells that Heterologous Express hNav1.7 and the β1 Subunit
Following the procedure described in Example 93A, and making modifications as required to: centrifuge supernatants at 100000×g instead of 10000×g; re-suspend pellets in a buffer containing 0.01% BSA in addition to 100 mM NaCl, 20 mM Tris HCl, pH 7.4 buffer, and 1% v/v proteasome inhibitors; and storing membranes at −80° C. in single use aliquots instead of pooled. […]
Target sequence in this assay (Q15858 whole entry, looked up): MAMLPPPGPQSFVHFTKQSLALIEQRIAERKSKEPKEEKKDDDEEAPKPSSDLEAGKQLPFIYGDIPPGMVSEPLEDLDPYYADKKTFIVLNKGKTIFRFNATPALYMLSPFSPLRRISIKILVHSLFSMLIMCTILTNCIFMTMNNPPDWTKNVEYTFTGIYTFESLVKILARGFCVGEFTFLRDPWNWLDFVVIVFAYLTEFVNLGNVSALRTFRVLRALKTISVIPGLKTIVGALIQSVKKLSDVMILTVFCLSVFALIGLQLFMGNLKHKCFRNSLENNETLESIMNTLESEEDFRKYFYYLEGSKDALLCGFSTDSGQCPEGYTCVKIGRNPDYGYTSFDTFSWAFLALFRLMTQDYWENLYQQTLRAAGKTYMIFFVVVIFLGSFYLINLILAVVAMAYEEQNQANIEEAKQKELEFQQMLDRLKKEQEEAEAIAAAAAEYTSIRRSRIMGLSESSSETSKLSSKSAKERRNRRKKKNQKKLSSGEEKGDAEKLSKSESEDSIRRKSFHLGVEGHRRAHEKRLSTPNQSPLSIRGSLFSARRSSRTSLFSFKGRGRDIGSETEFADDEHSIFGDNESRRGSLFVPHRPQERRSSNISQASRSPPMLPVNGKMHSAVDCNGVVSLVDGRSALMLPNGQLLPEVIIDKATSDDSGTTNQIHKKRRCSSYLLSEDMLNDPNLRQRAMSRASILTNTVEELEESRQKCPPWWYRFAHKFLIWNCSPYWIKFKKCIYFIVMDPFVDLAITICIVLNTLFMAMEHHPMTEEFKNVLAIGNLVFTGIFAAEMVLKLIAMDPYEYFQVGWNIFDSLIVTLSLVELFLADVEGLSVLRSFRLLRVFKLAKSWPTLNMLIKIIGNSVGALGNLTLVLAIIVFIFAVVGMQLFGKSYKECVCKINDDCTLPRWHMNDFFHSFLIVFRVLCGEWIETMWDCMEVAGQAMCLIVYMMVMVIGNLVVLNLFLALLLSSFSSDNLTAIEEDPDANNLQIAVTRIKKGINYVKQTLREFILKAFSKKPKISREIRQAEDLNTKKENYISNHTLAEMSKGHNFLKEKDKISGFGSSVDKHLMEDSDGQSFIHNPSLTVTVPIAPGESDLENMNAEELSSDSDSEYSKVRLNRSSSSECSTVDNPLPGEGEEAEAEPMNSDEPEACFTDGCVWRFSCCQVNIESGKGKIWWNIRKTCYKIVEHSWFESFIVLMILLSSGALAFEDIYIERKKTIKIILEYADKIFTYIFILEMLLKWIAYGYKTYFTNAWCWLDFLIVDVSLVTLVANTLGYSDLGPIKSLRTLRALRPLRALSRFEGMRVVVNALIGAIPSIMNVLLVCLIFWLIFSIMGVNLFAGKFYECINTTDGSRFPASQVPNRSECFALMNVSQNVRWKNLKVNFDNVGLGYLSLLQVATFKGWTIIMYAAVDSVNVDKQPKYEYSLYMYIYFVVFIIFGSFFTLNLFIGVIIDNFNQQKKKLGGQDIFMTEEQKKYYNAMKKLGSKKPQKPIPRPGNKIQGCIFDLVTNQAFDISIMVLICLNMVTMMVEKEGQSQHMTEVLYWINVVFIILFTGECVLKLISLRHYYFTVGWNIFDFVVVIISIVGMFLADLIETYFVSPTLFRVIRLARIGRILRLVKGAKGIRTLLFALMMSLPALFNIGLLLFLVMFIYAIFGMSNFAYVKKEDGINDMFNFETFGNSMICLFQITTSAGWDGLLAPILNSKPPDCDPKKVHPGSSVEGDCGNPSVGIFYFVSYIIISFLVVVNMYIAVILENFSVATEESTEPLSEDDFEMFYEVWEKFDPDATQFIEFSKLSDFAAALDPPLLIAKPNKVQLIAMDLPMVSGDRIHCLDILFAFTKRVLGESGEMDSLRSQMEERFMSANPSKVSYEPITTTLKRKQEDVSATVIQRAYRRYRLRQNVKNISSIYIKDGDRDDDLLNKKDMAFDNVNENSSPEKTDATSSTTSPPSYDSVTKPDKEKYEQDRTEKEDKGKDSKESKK
Target sequence in this assay (Q07699 whole entry partner, looked up): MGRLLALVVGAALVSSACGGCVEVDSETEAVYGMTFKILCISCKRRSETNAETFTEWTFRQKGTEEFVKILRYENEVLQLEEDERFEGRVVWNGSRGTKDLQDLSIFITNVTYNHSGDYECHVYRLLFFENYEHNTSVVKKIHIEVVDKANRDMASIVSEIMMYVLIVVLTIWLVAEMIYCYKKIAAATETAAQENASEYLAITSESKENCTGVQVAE

hNav1.7 [2] = biological target: T1, hNav1.7; test: Electrophysiological assay (EP), voltage clamp on Syncropatch 384PE, CHO cells stably expressing Nav1.7; assay type: cell-based; conditions: holding potential −50 mV, 7.5 min compound incubation, read-out: EP_SP hNav1.7 EVO IC50
Description: Example 93C. Electrophysiological Assay (EP) (In Vitro Assay)
Patch voltage clamp electrophysiology allows for the direct measurement and quantification of block of voltage-gated sodium channels (NaV's), and allows the determination of the time- and voltage-dependence of block which has been interpreted as differential binding to the resting, open, and inactivated states of the sodium channel (Hille, B., Journal of General Physiology (1977), 69: 497-515).
The following voltage clamp electrophysiology studies are performed on representative compounds using cells heterologously expressing Nav1.7 or Nav1.5 channels. cDNAsfor Nav1.7 (NM_002977) and Nav1.5 (AC137587) are stably expressed in Chinese Hamstr Ovary (CHO) cells and CHL (Chinese Hamster Lung) cells respectively. Sodium currents are measured in the whole-cell configuration using Syncropatch 384PE (Nanlon Technologies, Germany). 1NPC®-384 chips with custom medium resistance and single hole mode are used. Internal solution consists of (in mM): […], 10 […], 20 EGTA, and 10 Hepes (pH adjusted to 7.2); and external solution contains (in mM): 60 NMDG, 80 NaCl, 4 KCl, 1 MgCl2, 2 CaCl2, 2 D-Glucose monohydrate, 10 Hepes (pH adjusted to 7.4 with NaOH).
After system flushing, testing compounds are dissolved in external solution containing 0.1% Pluronic F-127. The chip is moved into the measuring head and the instrument primes the chip with external and internal solutions. 10 μl cells are added to the chip from a cell hotel, and a negative pressure of −50 mBar is applied to form a seal. Following treatment with seal enhancer solution and wash-off with external solution, negative pressure of −250 mbar is applied for 1 second to achieve the whole-cell configuration, followed by three washing steps in external solution. 20 μl of compounds is added to 40 μl in each well (1:3 dilution of compounds), and after mixing, 20 μl is removed so the volume is retained at 40 μl. After approximately 13 minutes recordings, 20 μl/well of 2 uM TTX, or 333 uM Tetracaine (for Nav1.5) is added to achieve full block.
For voltage protocol, an holding potential of −50 mV is applied during the whole experiment. A depolarizing step is applied to −10 mV for 10 ms, followed by a hyperpolarization step to −150 mV for 20 ms to allow channel recovery from inactivation. A second depolarizing step is applied from −150 mV to −10 mV for 10 ms, where currents are measured to derive blocking effects of compounds. Inhibition is determined based on 7.5 min of compound incubation.
Target sequence in this assay (Q15858 other isoform, or with tags, fused parts or gaps): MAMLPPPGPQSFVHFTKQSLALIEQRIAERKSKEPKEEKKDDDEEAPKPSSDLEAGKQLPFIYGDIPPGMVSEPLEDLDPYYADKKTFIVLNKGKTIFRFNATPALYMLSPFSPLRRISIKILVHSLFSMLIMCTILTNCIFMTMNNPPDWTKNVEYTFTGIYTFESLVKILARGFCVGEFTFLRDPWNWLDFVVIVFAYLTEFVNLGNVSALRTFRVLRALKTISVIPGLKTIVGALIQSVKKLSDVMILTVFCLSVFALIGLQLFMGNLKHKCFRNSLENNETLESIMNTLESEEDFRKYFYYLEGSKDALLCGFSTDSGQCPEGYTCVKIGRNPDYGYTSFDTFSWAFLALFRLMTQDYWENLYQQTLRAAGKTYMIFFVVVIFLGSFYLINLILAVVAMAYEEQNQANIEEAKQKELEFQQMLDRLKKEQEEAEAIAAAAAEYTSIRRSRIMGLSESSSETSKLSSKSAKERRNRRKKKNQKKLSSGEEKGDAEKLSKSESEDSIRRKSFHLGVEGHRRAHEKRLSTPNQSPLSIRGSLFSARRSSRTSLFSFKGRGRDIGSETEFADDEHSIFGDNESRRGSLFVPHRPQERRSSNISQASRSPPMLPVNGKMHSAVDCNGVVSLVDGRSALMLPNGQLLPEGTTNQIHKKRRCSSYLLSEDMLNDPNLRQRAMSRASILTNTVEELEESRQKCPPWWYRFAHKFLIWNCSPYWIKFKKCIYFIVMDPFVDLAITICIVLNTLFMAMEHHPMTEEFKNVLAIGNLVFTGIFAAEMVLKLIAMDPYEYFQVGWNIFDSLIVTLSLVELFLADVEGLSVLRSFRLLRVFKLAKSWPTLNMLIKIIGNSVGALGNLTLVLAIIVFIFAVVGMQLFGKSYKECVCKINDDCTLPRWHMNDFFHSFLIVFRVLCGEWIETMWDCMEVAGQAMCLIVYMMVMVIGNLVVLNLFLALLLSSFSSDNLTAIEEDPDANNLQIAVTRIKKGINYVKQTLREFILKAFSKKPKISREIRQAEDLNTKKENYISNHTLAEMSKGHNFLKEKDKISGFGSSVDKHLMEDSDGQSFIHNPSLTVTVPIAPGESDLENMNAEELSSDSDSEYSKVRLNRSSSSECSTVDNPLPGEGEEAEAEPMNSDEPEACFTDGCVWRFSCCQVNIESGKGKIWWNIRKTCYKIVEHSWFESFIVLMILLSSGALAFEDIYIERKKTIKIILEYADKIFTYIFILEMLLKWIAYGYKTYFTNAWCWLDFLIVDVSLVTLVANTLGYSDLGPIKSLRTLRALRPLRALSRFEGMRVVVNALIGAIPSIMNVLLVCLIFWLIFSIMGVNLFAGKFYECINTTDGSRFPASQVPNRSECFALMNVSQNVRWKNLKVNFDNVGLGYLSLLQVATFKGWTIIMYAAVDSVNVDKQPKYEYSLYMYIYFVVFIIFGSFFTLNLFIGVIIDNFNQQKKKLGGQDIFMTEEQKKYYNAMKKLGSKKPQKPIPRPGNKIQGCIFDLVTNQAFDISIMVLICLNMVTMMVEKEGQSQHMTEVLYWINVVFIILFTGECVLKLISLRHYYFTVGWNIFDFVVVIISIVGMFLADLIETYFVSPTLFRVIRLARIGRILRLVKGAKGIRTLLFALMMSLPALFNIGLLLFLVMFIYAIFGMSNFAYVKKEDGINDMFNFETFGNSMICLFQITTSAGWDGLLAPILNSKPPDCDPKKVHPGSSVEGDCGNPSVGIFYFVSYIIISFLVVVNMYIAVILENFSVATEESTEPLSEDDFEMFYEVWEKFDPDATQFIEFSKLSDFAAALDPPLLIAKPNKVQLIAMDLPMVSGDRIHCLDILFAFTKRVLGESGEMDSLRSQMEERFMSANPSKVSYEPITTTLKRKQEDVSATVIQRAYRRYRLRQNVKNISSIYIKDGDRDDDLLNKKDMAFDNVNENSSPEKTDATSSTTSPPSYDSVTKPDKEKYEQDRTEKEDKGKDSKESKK

IC50 (hNav1.7 [1]) [nM]	IC50 (hNav1.7 [2]) [nM]	SMILES
21.2	19.4	CN(C)[C@H]1C[C@@H](c2cccc(-c3cnn(C)c3)c2)CC[C@@H]1Nc1cc(F)c(S(=O)(=O)Nc2ccncn2)cc1Cl [Example 22]
3.83	0.325	CN(C)[C@H]1C[C@@H](c2ccc(Cl)c(Cl)c2)CC[C@@H]1Oc1cc(F)c(S(=O)(=O)Nc2ccncn2)cc1Cl [Example 67, 5-chloro-4-(((1S,2S,4S)-4-(3,4-dichlorophenyl)-2-(dimethylamino)cyclohexyl)oxy)-2-fluoro-N-(pyrimidin-4-yl)benzenesulfonamide formate]
3.02	2.31	CN(C)[C@H]1C[C@@H](c2cc(F)cc(Cl)c2)CC[C@@H]1Nc1cc(F)c(S(=O)(=O)Nc2ccncn2)cc1Cl [Example 25, 5-chloro-4-(((1S,2S,4S)-4-(3-chloro-5-fluorophenyl)-2-(dimethylamino)cyclohexyl)amino)-2-fluoro-N-(pyrimidin-4-yl)benzenesulfonamide]
0.661	0.334	CN1CC(N(C)[C@H]2C[C@@H](c3cccc(C(F)(F)F)c3)CC[C@@H]2Oc2cc(F)c(S(=O)(=O)Nc3ccncn3)cc2Cl)C1 [Example 81, 5-chloro-2-fluoro-4-(((1S,2S,4S)-2-(methyl(1-methylazetidin-3-yl)amino)-4-(3-(trifluoromethyl)phenyl)cyclohexyl)oxy)-N-(pyrimidin-4-yl)benzenesulfonamide formate]
1.2	0.923	CN(C)[C@H]1C[C@@H](c2cccc(C(F)(F)F)c2F)CC[C@@H]1Nc1cc(F)c(S(=O)(=O)Nc2ccncn2)cc1Cl [Example 16, 5-chloro-4-(((1S,2S,4S)-2-(dimethylamino)-4-(2-fluoro-3-(trifluoromethyl)phenyl)-cyclohexyl)-amino)-2-fluoro-N-(pyrimidin-4-yl)benzenesulfonamide]
6.13	1.2	CN(C)[C@H]1C[C@@H](c2cccc(C(C)(F)F)c2)CC[C@@H]1Oc1cc(F)c(S(=O)(=O)Nc2ccncn2)cc1Cl [Example 91, 5-chloro-4-(((1S,2S,4S)-4-(3-(1,1-difluoroethyl)phenyl)-2-(dimethylamino)cyclohexyl)oxy)-2-fluoro-N-(pyrimidin-4-yl)benzenesulfonamide]
7.94	1.18	CN1CC(N[C@H]2C[C@@H](c3cccc(C(F)(F)F)c3)CC[C@@H]2Oc2cc(F)c(S(=O)(=O)Nc3ccncn3)cc2Cl)C1 [Example 87, 5-chloro-2-fluoro-4-(((1S,2S,4S)-2-((1-methylazetidin-3-yl)amino)-4-(3-(trifluoromethyl)phenyl)-cyclohexyl)oxy)-N-(pyrimidin-4-yl)benzenesulfonamide]
23.6	2.73	O=C1COc2cc(S(=O)(=O)Nc3ccncn3)c(F)cc2N1[C@H]1CC[C@H](c2cccc(C(F)(F)F)c2)C[C@@H]1N1CCCC1 [Example 49, 6-Fluoro-3-oxo-N-(pyrimidin-4-yl)-4-((1S,2S,4S)-2-(pyrrolidin-1-yl)-4-(3-(trifluoromethyl)-phenyl)cyclohexyl)-3,4-dihydro-2H-benzo[b][1,4]oxazine-7-sulfonamide]
0.794	1.16	O=S(=O)(Nc1ccncn1)c1cc2c(cc1F)N([C@H]1CC[C@H](c3cccc(C(F)(F)F)c3)C[C@@H]1N1CCCC1)CCO2 [Example 47, 6-Fluoro-N-(pyrimidin-4-yl)-4-((1S,2S,4S)-2-(pyrrolidin-1-yl)-4-(3-(trifluoromethyl)phenyl)-cyclohexyl)-3,4-dihydro-2H-benzo[b][1,4]oxazine-7-sulfonamide]
12.4		CN(C)[C@H]1C[C@@H](c2cccc(C(F)(F)F)c2)CC[C@@H]1Nc1ccc(S(=O)(=O)Nc2ccncn2)cc1F [Example 89, 4-(((1S,2S,4S)-2-(Dimethylamino)-4-(3-(trifluoromethyl)phenyl)cyclohexyl)amino)-3-fluoro-N-(pyrimidin-4-yl)benzenesulfonamide formate]
	0.57	O=S(=O)(Nc1ccncn1)c1cc(Cl)c(O[C@H]2CC[C@H](c3cccc(C(F)(F)F)c3)C[C@@H]2N2CCC(O)C2)cc1F (some centres unmarked) [Example 90, formate]
